Test results reported in patent publication US8394641B2, “Method of hydrolyzing an enzymatic substrate” (Advanced Liquid Logic Inc., priority 2009, dated 2013).

Experiment: 4-MU partitioning assay (forward and backward extraction) with cyclodextrins
Type: physicochemical
Settings: for aqueous containment of 4-MU: independent of pH
Description: The assay format includes forward transfer partitioning (forward extraction; FE) of 4-MU from an aqueous phase to an oil phase and backward transfer partitioning (backward extraction; BE) of 4-MU from an oil phase to an aqueous phase. The assay is performed in 96-well microtiter substrates; clear 96-well substrates (e.g., Costar 3631) for evaluation of forward transfer partitioning with bottom probe fluorescence detection and solid black 96-well substrates (e.g., Costar 3915) for evaluation of backward transfer partitioning with top probe fluorescence detection. A BioTek Synergy HT instrument with 3 mm top probe and 5 mm bottom probe, may, for example, be used for fluorescence measurements. In one example, parameters that may be varied in the assay for evaluation of cyclodextrins in aqueous containment of 4-MU include, but are not limited to, ionic strength of the aqueous phase solution, pH of the aqueous phase solution (e.g., pH 2 or pH 5), and the molar ratio of cyclodextrins to 4-MU.
An example of an assay format used for testing the effect of cyclodextrins on contamination through 4-MU partitioning includes, but is not limited to, the following steps: Pipette an aliquot (20 μL) of an aqueous phase solution (e.g., at pH 2, pH5 or pH 10.5) containing a surfactant, such as 0.01% Tween® 20 in a well of a 96-well clear microtiter plate. […] Measure the fluorescence of each well using a bottom probe at gains 40, 45, and 50. […] Remove the aluminum foil and measure the fluorescence of each well using a top probe at gains 50, 60, 70, and 80. […]
Each well of the second microtiter plate (i.e., a solid black microtiter plate) contains 50 μL of an aqueous solution (200 mM NaHCO3) at pH 10.5. […] For fluorescence calibration, an aqueous solution containing 4-MU (0, 0.01, 0.1, or 1 μM) was added to the corresponding “empty” wells of Table 5 and overlaid with a 50 μL aliquot of fresh oil.
FIGS. 17A and 17B show data tables 1700 and 1750, respectively, of fluorescence readings for forward transfer and backward transfer, respectively, of the 4-MU partitioning assay of Tables 5 and 6. […]

hydroxypropyl-β-cyclodextrin
aqueous containment of 4-MU: effective

methyl-β-cyclodextrin
aqueous containment of 4-MU: effective | contamination signal (back extraction) (molar ratio of Me-bCD to 4-MU 200:1, FIG. 16D): lowest contamination signal
